Experimental data published in patent publication US20260274922A1, “SYNTHETIC ESTROGEN RECEPTOR (ER)-DERIVED PEPTIDE” (THE TEXAS A&M UNIVERSITY SYSTEM, priority 2023, published 2026).
Where no end group is shown, it is not given here. The star is where a group is joined. FITC = O=C1OC2(c3ccc(O)cc3Oc3cc(O)ccc32)c2ccc(NC(=S)*)cc21

Columns and labels:
[1] = system: diet-induced obesity (DIO) mice; format: in vivo, mouse
Procedure: Obese mouse models and AF1 peptide treatment. For the high-fat diet (HFD)-induced obese mouse model, the 6-8-week-old male mice were fed with HFD (HFD; 60% kcal from fat, D12492; Research diet, New Brunswick, NJ) for 11 weeks. Then mice received 5 mg/kg body weight control or AF1 peptide through retro orbital injection (twice per week; 5 weeks). For genetic obesity mouse model, the 8-week-old db/db mice were administered with 5 mg/kg body weight control or AF1 peptide through retro orbital injection (twice per week; 5 weeks). Glucose tolerance and insulin tolerance tests were performed in the fourth and fifth week after treatment, respectively. Body composition was measured using EchoMRI™ one day before sacrificing the mice.
(§1) Glucose and insulin tolerance tests. For glucose tolerance tests, mice were fasted for 16 h and intraperitoneally (i.p.) injected with dextrose (1 g/kg body weight for mice fed with regular diet; 0.5 g/kg body weight for db/db mice or mice fed with HFD). For insulin tolerance tests, mice were fasted for 6 h and i.p. injected with insulin solution (1 U/kg body weight for male mice; 0.75 U/kg body weight for female mice). Blood glucose levels were measured using glucometer at indicated time points.
RNA extraction and quantitative real-time PCR. Total RNA was extracted from livers or primary hepatocytes using TRIzol (Invitrogen, Thermo Fisher Scientific), purified with chloroform, 80% ethanol, isopropanol, and RNA column, eluted with RNase free water, and reverse transcribed into cDNA using iScript Reverse Transcription Supermix (Bio-Rad, Hercules, CA). Quantitative real-time PCR (qPCR) was conducted using SsoAdvanced Universal SYBR Green Supermix (Bio-Rad, Hercules, CA) on CFX384 real-time PCR detection system (Bio-Rad, Hercules, CA). Q-PCR started with 95° C. incubation for 3 min, followed by 39 cycles of 95° C. for 5 s and 60° C. for 30 s. The threshold cycle (CT) values were obtained and used to calculate the relative transcriptional level of target genes by 2^−ΔΔCT method with Cyclophilin (Cyp) as an internal control. […].
Hematoxylin and eosin staining and Oil Red O staining. Livers were embedded into paraffin after being fixed by PFA, and then cut into 5 μm sections. After deparaffinization and hydration, liver sections were stained with hematoxylin for 5 min. After differentiation by 1% acid alcohol, liver sections were stained with 1% eosin for 3 min. Finally, liver sections were dehydrated and mounted with mounting media. For Oil Red O staining, liver frozen sections were prepared and fixed in 10% neutral buffered formalin for 10 min after air dry for 1 h. Liver sections were stained in Oil Red O working solution for 15 min after a quick dip in 60% isopropanol. Liver sections were then stained with hematoxylin for 3 min and covered with aqueous mounting gel. Liver sections were observed using slide scanner (Leica).
(§2) Co-immunoprecipitation and Western blotting analysis. […] Protein bands were detected using a ChemiDoc image system.
Serum lipid profile analysis. Serum triglyceride, AST, ALT, cholesterol, LDL, HDL, NEFA, and ALP were measured using DxC 700 AU Chemistry Analyzer (Beckman Coulter).
Serum insulin and liver triglyceride analysis. Serum insulin and triglyceride levels were measured by using mouse insulin ELISA kit (Mercodia) and triglyceride assay kit (Abcam), respectively.

IRS1 protein domains = target: T1, IRS1 protein domains (Homo sapiens, UniProt P35568); test: AF1 peptide and IRS1 protein interaction (co-immunoprecipitation, FITC signal); format: binding; settings: HEK293 cells, 10 μM FITC-labelled peptide 3 h
T1 construct: expressed in transfected cells; host or cells: HEK293
T1 sequence (P35568 1-300): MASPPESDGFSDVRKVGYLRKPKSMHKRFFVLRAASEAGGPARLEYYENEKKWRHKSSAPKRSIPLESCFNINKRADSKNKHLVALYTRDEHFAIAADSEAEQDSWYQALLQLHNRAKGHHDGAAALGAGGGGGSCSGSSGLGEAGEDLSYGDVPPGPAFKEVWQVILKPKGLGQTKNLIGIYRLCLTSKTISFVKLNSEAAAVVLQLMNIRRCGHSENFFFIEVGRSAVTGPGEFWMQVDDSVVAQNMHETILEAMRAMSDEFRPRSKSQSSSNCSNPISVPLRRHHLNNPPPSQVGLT
Procedure: AF1 peptide and IRS1 protein interaction. HEK293 cells were transfected with Flag-IRS1 or Flag-IRS1 truncated domains using lipofectamine 3000 for 30 h, followed by treatment of 10 μM control and AF1 peptides labelled with FITC fluorescence for 3 h. After 10 μM MG132 treatment for 1 h, cell protein was extracted, and Flag-labelled proteins were immunoprecipitated. The intensity of control and AF1 peptide was calculated through measuring FITC fluorescence signal with multiplex reader. The results were normalized using IgG group.

DKO male mice = test: AF1 peptide treatment of liver-specific IRS1 and IRS2 knockout (DKO) mice; format: in vivo, mouse
Procedure: Animal studies. All animal experiments were performed following procedures approved by the Texas A&M University Institutional Animal Care and Use Committee. Mice are housed at 22-24° C. and maintained on a 12 h light/12 h dark cycle with a standard chow diet (58% calories from carbohydrate, 18% from fat, and 24% from protein, 3.1 kcal/g, with a reduced phytoestrogen content; Teklad Diet) ad libitum. Liver-specific ERα (ERα^LivKO) or ERβ (ERβ^LivKO) knockout mice were generated by crossing ERα or ERβ flox mice (gift from Dr. Yong Xu, Baylor College of Medicine) with Albumin-Cre mice purchased from The Jackson Laboratory (Strain #003574), respectively. Liver IRS1 and IRS2 double knockout (DKO) mice were generated by breeding IRS1 and IRS2 flox (IRS1^L/L::IRS2^L/L) mice with Albumin-Cre mice. Liver IRS1, IRS2, and ERα triple knockout (TKO) mice were generated by crossing DKO mice with ERα^LivKO mice. All mice were on C57B/6J background. Db/db mice were purchased from The Jackson Laboratory (Strain #000697). Female mice at age of 2-month-old underwent a bilateral ovariectomy (OVX) surgery; these mice were used to perform experiments 4 weeks after OVX surgery. All the mice experiments were performed with age- and gender-matched mice with their health status examined daily by the investigators and technicians from Texas A&M University LARR Animal Facility. Littermate controls were used if possible.
as §1, §2

[2] = DIO mice, 5 mg/kg twice per week, 5 weeks
[3] = DIO mice, 5 mg/kg twice per week, 5 weeks, vs CNTR

Sequence: YGRKKRRQRRRTKASGMALLHEPLNRPQLKIPLERDSSKPAVYNY ({FITC}-YGRKKRRQRRRTKASGMALLHEPLNRPQLKIPLERDSSKPAVYNY) [AF1 peptide]
- decrease in serum NEFA ([1]; DIO mice): 21%
- decrease in serum cholesterol ([1]; DIO mice): 8%
- decrease in serum triglyceride ([1]; DIO mice): 21%
- glucose tolerance ([1]; DIO mice): significantly improved
- insulin sensitivity ([1]; DIO mice): significantly improved
- serum HDL ([1]; DIO mice): decreases
- serum LDL ([1]; DIO mice): decreases
- serum insulin ([1]; DIO mice): not changed
- overnight fasting blood glucose [1, 2]: 85.4 ± 0.2 mg/dL
- random feeding blood glucose [1, 2]: 154.2 ± 4.7 mg/dL
- decrease in overnight fasting blood glucose [1, 3]: 20%
- decrease in random feeding blood glucose [1, 3]: 12%
- liver fat accumulation ([1]; DIO mice, H&E staining): ameliorated
- decrease in pIRS1-302 ([1]; DIO mice, liver): 32%
- increase in IRS1 ([1]; DIO mice, liver): 49%
- increase in pAKT-308 ([1]; DIO mice, liver): 51%
- increase in pAKT-S473 ([1]; DIO mice, liver): 100%
- mRNA expression of FAO gene (Hadha) ([1]; DIO mice, liver, q-PCR): increased
- mRNA expression of gluconeogenic gene (Pck1) ([1]; DIO mice, liver, q-PCR): significantly decreased
- mRNA expression of inflammatory cytokine (Il6) ([1]; DIO mice, liver, q-PCR): significantly decreased
- mRNA expression of lipogenic gene (Fasn) ([1]; DIO mice, liver, q-PCR): significantly decreased
- serum ALP ([1]; mouse, in vivo): not changed
- serum ALT ([1]; mouse, in vivo): not changed
- serum AST ([1]; mouse, in vivo): not changed
- interaction with IRS1 protein domains (IRS1 protein domains): interacted with the IRS1 1-300 domain
- glucose homeostasis (DKO male mice; glucose tolerance test): significantly improved
- insulin sensitivity (DKO male mice; insulin tolerance test): significantly improved
- insulin-induced AKT phosphorylation in the liver (DKO male mice; liver): could not be rescued
- insulin-stimulated AKT phosphorylation in skeletal muscle and eWAT (DKO male mice; skeletal muscle and epididymal white adipose tissue): partially improved
